One assay addresses T1, CDK4/cyclin D3 (Homo sapiens, UniProt P11802).
T1 construct: purchased Carna Biosciences, Inc. QS S Assist CDK4/Cyclin D3_FP Kit
Put plainly: Human CDK4/cyclin D3 inhibitory activity (QS S Assist CDK4/Cyclin D3_FP Kit, IMAP fluorescent polarization). Type of assay: biochemical. As to conditions: read-out: CDK4 Activity symbol. In outline:
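Kinase reactions used kit CDK4/cyclin D3 at 12.5–25 ng/well with the kit ATP/substrate/metal mix in 20 mM HEPES (pH 7.4), 0.01% Tween20 and 2 mM DTT, run 45 min at room temperature. Phosphorylation was detected by IMAP fluorescence polarization (ex 485/em 535 nm) after 30 min binding in the dark. IC50 was fitted from percent inhibition against DMSO controls with and without enzyme.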

In another assay the target is T2, CDK2/cyclin A2 (Homo sapiens, UniProt P24941).
T2 construct: purchased Carna Biosciences, Inc. QS S Assist CDK2/Cyclin A2_FP Kit
The experiment in a line: Human CDK2/cyclin A2 inhibitory activity (QS S Assist CDK2/Cyclin A2_FP Kit, IMAP fluorescent polarization). It counts as biochemical. Conditions: read-out: CDK2 Activity symbol. In outline:
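Kit CDK2/cyclin A2 (2.5 ng/well) was reacted with kit ATP/substrate/metal in 20 mM HEPES pH 7.4, 0.01% Tween 20 and 2 mM DTT for 60 min at room temperature. IMAP binding reagent was added for 30 min, then fluorescence polarization was read at 485/535 nm. IC50 came from dose-response fitting of percent inhibition.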

Consider 47 compounds from patent publication US11084814B2, “Pyrido[3, 4-d]pyrimidine derivative and pharmaceutically acceptable salt thereof” (Teijin Pharma Limited, priority 2016, dated 2021).

T1 sequence (P11802 whole entry): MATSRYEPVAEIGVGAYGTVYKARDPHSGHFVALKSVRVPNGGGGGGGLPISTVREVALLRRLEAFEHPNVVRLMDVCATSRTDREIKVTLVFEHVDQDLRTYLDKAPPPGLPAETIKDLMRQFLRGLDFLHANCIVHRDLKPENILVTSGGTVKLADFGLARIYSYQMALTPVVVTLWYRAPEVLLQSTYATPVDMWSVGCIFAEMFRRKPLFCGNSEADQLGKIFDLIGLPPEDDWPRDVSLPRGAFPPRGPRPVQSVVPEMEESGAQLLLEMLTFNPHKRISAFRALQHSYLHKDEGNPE
T1 sequence (P30281 whole entry partner): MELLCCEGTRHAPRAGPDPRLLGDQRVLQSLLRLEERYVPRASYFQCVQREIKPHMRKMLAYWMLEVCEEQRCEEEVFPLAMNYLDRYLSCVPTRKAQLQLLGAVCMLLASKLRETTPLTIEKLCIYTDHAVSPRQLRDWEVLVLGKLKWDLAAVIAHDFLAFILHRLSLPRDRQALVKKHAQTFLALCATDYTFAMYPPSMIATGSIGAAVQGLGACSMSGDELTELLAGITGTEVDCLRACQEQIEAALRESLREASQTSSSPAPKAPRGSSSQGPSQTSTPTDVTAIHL

Consider `C[C@@H](O)c1cc2cnc(Nc3ccc4c(n3)CCN(C3COC3)C4)nc2c(N2CCCCC2)n1` [Compound 161], for which the IC50 was below 10 nM on CDK4/cyclin D3 and at least 100 nM at CDK2/cyclin A2.

`C[C@@H](O)c1cc2cnc(Nc3ccc4c(n3)CCN(CCN3CCOCC3)C4)nc2c(N2CCCCC2)n1` [Compound 162]: the figures for the IC50 at CDK4/cyclin D3 and at CDK2/cyclin A2 were below 10 nM and at least 100 nM, respectively.

For `C[C@@H](O)c1cc2cnc(Nc3ccc4c(n3)CCN(S(=O)(=O)C3CCNCC3)C4)nc2c(N2CCCCC2)n1` [Compound 163, (R)-1-(8-(piperidin-1-yl)-2-((6-(piperidin-4-ylsulfonyl)-5,6,7,8-tetrahydro-1,6-naphthyridin-2-yl)amino)pyrido[3,4-d]pyrimidin-6-yl)ethanol], the IC50 was below 10 nM on CDK4/cyclin D3 and at least 100 nM on CDK2/cyclin A2.

In the case of `C[C@@H](O)c1cc2cnc(Nc3ccc(OC4CCNCC4)cn3)nc2c(N2CCCCC2)n1` [Compound 164], the values for the IC50 at CDK4/cyclin D3 and at CDK2/cyclin A2 were below 10 nM and at least 100 nM, respectively.

As for `C[C@@H](O)c1cc2cnc(Nc3ccc(OC4CCN(CCO)CC4)cn3)nc2c(N2CCCCC2)n1` [Compound 165], the IC50 at CDK4/cyclin D3 is below 10 nM; on CDK2/cyclin A2, at least 100 nM.

Turning to `C[C@H](CO)c1cc2cnc(Nc3ccc4c(n3)CCNC4)nc2c(N2CCCCC2)n1` [Compound 166], the figures for the IC50 at CDK4/cyclin D3 and on CDK2/cyclin A2 were 10 to 100 nM and at least 100 nM, respectively.

As to `C[C@@H](CO)c1cc2cnc(Nc3ccc(CN4CCN(CCO)CC4)cn3)nc2c(N2CCCCC2)n1` [Compound 167], the IC50 at CDK4/cyclin D3 was below 10 nM; on CDK2/cyclin A2 it was at least 100 nM.

Consider `C[C@@H](O)Cc1cc2cnc(Nc3ccc(CN4CCN(CCO)CC4)cn3)nc2c(N2CCCCC2)n1` [Compound 168], for which the IC50 at CDK4/cyclin D3 was 10 to 100 nM; on CDK2/cyclin A2, at least 100 nM.

`C[C@@H](O)Cc1cc2cnc(Nc3ccc(N4CCNCC4=O)cn3)nc2c(N2CCCCC2)n1` [Compound 169]: the results for the IC50 on CDK4/cyclin D3 and on CDK2/cyclin A2 were 10 to 100 nM and at least 100 nM, respectively.

Turning to `C[C@@H](O)Cc1cc2cnc(Nc3ccc4c(n3)CCN(CCO)C4)nc2c(N2CCCCC2)n1` [Compound 170], the results for the IC50 at CDK4/cyclin D3 and at CDK2/cyclin A2 were 10 to 100 nM and at least 100 nM, respectively.

`C[C@@H](CO)c1cc2cnc(Nc3ccc4c(n3)CCN(CCO)C4)nc2c(N2CCCCC2)n1` [Compound 171]: the IC50 at CDK4/cyclin D3 is 10 to 100 nM; at CDK2/cyclin A2, at least 100 nM.

For the compound `C[C@@H](O)c1cc2cnc(Nc3ccc(CN4CCN(C)CC4)cn3)nc2c(N2CCC2)n1` [Compound 172], the IC50 on CDK4/cyclin D3 was 10 to 100 nM; on CDK2/cyclin A2, at least 100 nM.

In the case of `C[C@@H](O)c1cc2cnc(Nc3ccc(CN4CCN(C)CC4)cn3)nc2c(N2CCCC2(C)C)n1` [Compound 173], the figures for the IC50 at CDK4/cyclin D3 and at CDK2/cyclin A2 were below 10 nM and 10 to 100 nM, respectively.

As for `CC(O)c1cc2cnc(Nc3ccc(CN4CCN(C)CC4)cn3)nc2c(N2C3CCCC2CC3)n1` (stereo not shown) [Compound 174], the results for the IC50 at CDK4/cyclin D3 and at CDK2/cyclin A2 were below 10 nM and at least 100 nM, respectively.

As to `C[C@@H](O)c1cc2cnc(Nc3ccc4c(n3)CCN(C3CNC3)C4)nc2c(N2CCCCC2)n1` [Compound 175], the IC50 at CDK4/cyclin D3 is below 10 nM; at CDK2/cyclin A2 it was at least 100 nM.

Take `C[C@@H](O)c1cc2cnc(Nc3ccc4c(n3)CCN(C3CN(CCO)C3)C4)nc2c(N2CCCCC2)n1` [Compound 176]: the IC50 at CDK4/cyclin D3 is below 10 nM; at CDK2/cyclin A2, at least 100 nM.

Turning to `C[C@@H](O)c1cc2cnc(Nc3ccc(CN4CCN(C)CC4)cn3)nc2c(N2CCCOCC2)n1` [Compound 177], the IC50 is below 10 nM at CDK4/cyclin D3 and at least 100 nM on CDK2/cyclin A2.

In the case of `C[C@@H](O)c1cc2cnc(Nc3ccc(CN4CCN(CCO)CC4)cn3)nc2c(N2CCCOCC2)n1` [Compound 178], the IC50 at CDK4/cyclin D3 was below 10 nM; on CDK2/cyclin A2, at least 100 nM.

Consider `C[C@@H](O)c1cc2cnc(Nc3ccc(CN4CCN(C)CC4)cn3)nc2c(N2CCC[C@H](F)C2)n1` [Compound 179], for which the IC50 was below 10 nM at CDK4/cyclin D3 and at least 100 nM at CDK2/cyclin A2.

For the compound `C[C@@H](O)c1cc2cnc(Nc3ccc(CN4CCN(CCO)CC4)cn3)nc2c(N2CCC[C@H](F)C2)n1` [Compound 180], the IC50 on CDK4/cyclin D3 is below 10 nM; at CDK2/cyclin A2 it was at least 100 nM.

Take `C[C@@H](O)c1cc2cnc(Nc3ccc(CN4CCN(CCO)CC4)cn3)nc2c(N2CC[C@H](F)C2)n1` [Compound 181]: the figures for the IC50 on CDK4/cyclin D3 and at CDK2/cyclin A2 were 10 to 100 nM and at least 100 nM, respectively.

On to `C[C@@H](O)c1cc2cnc(Nc3ccc(CN4CCN(CCO)CC4)cn3)nc2c(N2CC[C@@H](F)C2)n1` [Compound 182], for which the figures for the IC50 at CDK4/cyclin D3 and at CDK2/cyclin A2 were below 10 nM and at least 100 nM, respectively.

On to `C[C@H](O)CN1CCN(Cc2ccc(Nc3ncc4cc([C@@H](C)O)nc(N5CCCCC5)c4n3)nc2)CC1` [Compound 183, (S)-1-(4-((6-((6-((R)-1-hydroxyethyl)-8-(piperidin-1-yl)pyrido[3,4-d]pyrimidin-2-yl)amino)pyridin-3-yl)methyl)piperazin-1-yl)propan-2-ol], for which the IC50 is below 10 nM at CDK4/cyclin D3 and at least 100 nM at CDK2/cyclin A2.

`Cc1nc(Nc2ncc3cc([C@@H](C)O)nc(N4C5CCC4CC5)c3n2)ccc1N1CCN(C)CC1` [Compound 185]: the IC50 on CDK4/cyclin D3 is below 10 nM; on CDK2/cyclin A2, at least 100 nM.

Regarding `C[C@@H](O)c1cc2cnc(Nc3ccc(CN4CCN(C)C[C@@H]4C)cn3)nc2c(N2CCCCC2)n1` [Compound 186], the IC50 on CDK4/cyclin D3 is below 10 nM; at CDK2/cyclin A2, at least 100 nM.

Consider `C[C@@H](O)c1cc2cnc(Nc3ccc(CN4CCN(C)C[C@@H]4C)cn3)nc2c(N2C3CCC2CC3)n1` [Compound 187], for which the IC50 was below 10 nM on CDK4/cyclin D3 and at least 100 nM on CDK2/cyclin A2.

For the compound `C[C@@H](O)c1cc2cnc(Nc3ccc(CN4CCN(C)[C@@H](C)C4)cn3)nc2c(N2CCCCC2)n1` [Compound 188], the IC50 on CDK4/cyclin D3 was below 10 nM; on CDK2/cyclin A2, at least 100 nM.

For the compound `C[C@@H](O)c1cc2cnc(Nc3ccc(CN4CCN(C)[C@@H](C)C4)cn3)nc2c(N2C3CCC2CC3)n1` [Compound 189], the IC50 on CDK4/cyclin D3 is below 10 nM; on CDK2/cyclin A2, at least 100 nM.

For `C[C@@H](O)c1cc2cnc(Nc3ccc(CN4CCN(CCO)CC4)cn3)nc2c(-c2ccccc2)n1` [Compound 190], the IC50 at CDK4/cyclin D3 is 10 to 100 nM; on CDK2/cyclin A2, at least 100 nM.

Turning to `C[C@@H](O)c1cc2cnc(Nc3ccc(N4CCNCC4=O)cn3)nc2c(-c2ccccc2)n1` [Compound 191], the IC50 at CDK4/cyclin D3 is 10 to 100 nM; at CDK2/cyclin A2 it was at least 100 nM.

Take `C[C@H](CO)c1cc2cnc(Nc3ccc(N4CCNCC4=O)cn3)nc2c(N2CCCCC2)n1` [Compound 192]: the IC50 on CDK4/cyclin D3 is 10 to 100 nM; at CDK2/cyclin A2, at least 100 nM.

For the compound `C[C@H](CO)c1cc2cnc(Nc3ccc4c(n3)CCN(CCO)C4)nc2c(N2CCCCC2)n1` [Compound 193], the IC50 on CDK4/cyclin D3 is 10 to 100 nM; on CDK2/cyclin A2, at least 100 nM.

With `C[C@@H](CO)c1cc2cnc(Nc3ccc(N4CCNCC4=O)cn3)nc2c(N2CCCCC2)n1` [Compound 194], the results for the IC50 on CDK4/cyclin D3 and on CDK2/cyclin A2 were below 10 nM and at least 100 nM, respectively.

Turning to `C[C@H](CO)c1cc2cnc(Nc3ccc(CN4CCN(CCO)CC4)cn3)nc2c(N2CCCCC2)n1` [Compound 195], the IC50 on CDK4/cyclin D3 was 10 to 100 nM; at CDK2/cyclin A2, at least 100 nM.

As for `C[C@@H](O)c1cc2cnc(Nc3ccc4c(n3)CCN(CC#N)C4)nc2c(N2CCCCC2)n1` [Compound 196], the IC50 on CDK4/cyclin D3 is 10 to 100 nM; on CDK2/cyclin A2 it was at least 100 nM.

Take `C[C@@H](O)c1cc2cnc(Nc3ccc4c(n3)CCN(CC3COC3)C4)nc2c(N2CCCCC2)n1` [Compound 197]: the IC50 at CDK4/cyclin D3 was 10 to 100 nM; on CDK2/cyclin A2 it was at least 100 nM.

`C[C@@H](O)c1cc2cnc(Nc3ccc(CN4CCN(C)CC4)cn3)nc2c(N2CCC[C@@H](F)C2)n1` [Compound 198]: the IC50 at CDK4/cyclin D3 was below 10 nM; at CDK2/cyclin A2, at least 100 nM.

On to `C[C@@H](O)c1cc2cnc(Nc3ccc(CN4CCN(CCO)CC4)cn3)nc2c(N2CCC[C@@H](F)C2)n1` [Compound 199], for which the IC50 is below 10 nM on CDK4/cyclin D3 and at least 100 nM at CDK2/cyclin A2.

On to `C[C@@H](O)c1cc2cnc(Nc3ccc4c(n3)CCN(C3CN(C)C3)C4)nc2c(N2CCCCC2)n1` [Compound 200], for which the IC50 is below 10 nM on CDK4/cyclin D3 and at least 100 nM on CDK2/cyclin A2.

As to `C[C@@H](O)c1cc2cnc(Nc3ccc4c(n3)CN(CCO)C4)nc2c(N2CCCCC2)n1` [Compound 201], the IC50 at CDK4/cyclin D3 is below 10 nM; at CDK2/cyclin A2 it was at least 100 nM.

With `C[C@H](O)Cc1cc2cnc(Nc3ccc(CN4CCN(CCO)CC4)cn3)nc2c(N2CCCCC2)n1` [Compound 202], the IC50 at CDK4/cyclin D3 was 10 to 100 nM; on CDK2/cyclin A2, at least 100 nM.

In the case of `C[C@H](O)Cc1cc2cnc(Nc3ccc(N4CCNCC4=O)cn3)nc2c(N2CCCCC2)n1` [Compound 203], the IC50 is below 10 nM on CDK4/cyclin D3 and at least 100 nM at CDK2/cyclin A2.

Turning to `C[C@H](O)Cc1cc2cnc(Nc3ccc4c(n3)CCN(CCO)C4)nc2c(N2CCCCC2)n1` [Compound 204], the IC50 is 10 to 100 nM at CDK4/cyclin D3 and at least 100 nM on CDK2/cyclin A2.

Consider `c1cc(Nc2ncc3cc(C4CCOC4)nc(N4C5CCC4CC5)c3n2)ncc1CN1CCNCC1` (stereo not shown) [Compound 205], for which the IC50 was below 10 nM at CDK4/cyclin D3 and at least 100 nM on CDK2/cyclin A2.

Turning to `c1cc(Nc2ncc3cc(C4CCOC4)nc(N4CCCCC4)c3n2)ncc1CN1CCNCC1` (stereo not shown) [Compound 206], the IC50 on CDK4/cyclin D3 was below 10 nM; at CDK2/cyclin A2, at least 100 nM.

With `c1cc(N2CCNCC2)nnc1Nc1ncc2cc(C3CCOC3)nc(N3C4CCC3CC4)c2n1` (stereo not shown) [Compound 207], the IC50 is below 10 nM at CDK4/cyclin D3 and at least 100 nM on CDK2/cyclin A2.

Take `c1cc(N2CCNCC2)nnc1Nc1ncc2cc(C3CCOC3)nc(N3CCCCC3)c2n1` (stereo not shown) [Compound 208]: the IC50 is below 10 nM at CDK4/cyclin D3 and at least 100 nM on CDK2/cyclin A2.
